Among the data in patent publication US9790169B2, “IDO inhibitors” (BRISTOL-MYERS SQUIBB COMPANY, priority 2015, dated 2017) are IC50 values, retold here.

For this assay, the target named is human IDO1 (Homo sapiens, UniProt P14902). In words: Assessment of human IDO-1 inhibitory activity in HEK cells (human IDO1/HEK293 cells, kynurenine read-out with Ehrlich reagent, absorbance 490 nm). The format is cell-based. Further details: expressed in transfected cells. The note with it: HEK Human IDO-1 cellular assay. As for the experimental part: Exemplary compounds were tested for inhibition of IDO activity.
Sequence of human IDO1 (P14902 whole entry): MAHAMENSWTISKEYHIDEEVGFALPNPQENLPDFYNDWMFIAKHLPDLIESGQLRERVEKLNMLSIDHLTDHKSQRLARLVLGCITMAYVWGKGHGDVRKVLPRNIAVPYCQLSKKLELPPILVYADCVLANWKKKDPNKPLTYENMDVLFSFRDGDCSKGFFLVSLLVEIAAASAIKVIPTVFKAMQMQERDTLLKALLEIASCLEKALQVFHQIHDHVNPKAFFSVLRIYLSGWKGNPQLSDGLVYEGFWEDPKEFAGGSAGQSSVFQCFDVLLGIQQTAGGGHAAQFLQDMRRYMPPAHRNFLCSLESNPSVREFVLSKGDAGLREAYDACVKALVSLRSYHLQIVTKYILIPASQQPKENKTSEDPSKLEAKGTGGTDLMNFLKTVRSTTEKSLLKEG
Assessment of Human IDO-1 Inhibitory Activity in HEK Cells
HEK293 cells were transfected with a pCDNA-based mammalian expression vector harboring human IDO1 cDNA (NM 002164.2) by electroporation. They were cultured in medium (DMEM with 10% FBS) containing 1 mg/ml G418 for two weeks. Clones of HEK293 cells that stably expressed human IDO1 protein were selected and expanded for IDO inhibition assay.
The human IDO1/HEK293 cells were seeded at 10,000 cells per 50 μL per well with RPMI/phenol red free media contains 10% FBS in a 384-well black wall clear bottom tissue culture plate (Matrix Technologies LLC) 100 nL of certain concentration of compound was then added to each well using ECHO liquid handling systems. The cells were incubated for 20 hours in 37° C. incubator with 5% CO2.
The compound treatments were stopped by adding trichloroacetic acid (Sigma-Aldrich) to a final concentration at 0.2%. The cell plate was further incubated at 50° C. for 30 minute. The equal volume supernatant (20 μL) and 0.2% (w/v) Ehrlich reagent (4-dimethylaminobenzaldehyde, Sigma-Aldrich) in glacial acetic acid were mixed in a new clear bottom 384-well plate. This plate was then incubated at room temperature for 30 minute. The absorbance at 490 nm was measured on Envision plate reader.
Compound IC50 values were calculated using the counts of 500 nM of a reference standard treatment as one hundred percent inhibition, and counts of no compound but DMSO treatment as zero percent inhibition.
What is called IC50 is the concentration that gives 50% inhibition. As for `CC(C)C(CC(=O)O)c1ccc(N(C)C(C)(C)C)c(Nc2nc3ccccc3o2)c1` (single isomer, unassigned) [1008-1], the IC50 is above 50 nM. Turning to `CC[C@@H](CC(=O)O)c1ccc(N(CC)C2CCOCC2)c(NC(=O)Nc2ccc(Cl)cc2)c1` (single isomer, unassigned) [Example 494], the IC50 was above 50 nM. Turning to `COCC(CC(=O)O)c1cc(F)c(N(CC(C)C)CC(C)C)c(NC(=O)Nc2ccc(OC(F)(F)F)cc2)c1` (single isomer, unassigned) [Example 1192, 3-(4-(Diisobutylamino)-3-fluoro-5-(3-(4-(trifluoromethoxy)phenyl)ureido)phenyl)-4-methoxybutanoic acid], the IC50 was below 50 nM. Then `CCC(CC(=O)O)c1ccc(N(CC(C)C)C2CCCCC2)c(Nc2ccc3c(c2)OCCO3)c1` (single isomer, unassigned) [Example 301, 3-(4-(cyclohexyl(isobutyl)amino)-3-((2,3-dihydrobenzo[b][1,4]dioxin-6-yl)amino)phenyl) pentanoic acid], with below 50 nM; and `CC[C@H](CC(=O)O)c1ccc(N(CC)C2CCOCC2)c(Nc2ccc(OCC(F)(F)F)cc2)c1` (single isomer, unassigned) [Example 515], with below 5 nM. Consider `CC(C)CN(c1ccc(C(C)CC(=O)O)cc1Nc1nc2ccccc2o1)C1CCOCC1` (single isomer, unassigned) [Example 968, 3-(3-(Benzo[d]oxazol-2-ylamino)-4-(isobutyl(tetrahydro-2H-pyran-4-yl)amino)phenyl)butanoic acid], for which the IC50 is below 50 nM.

With `CCC(CC(=O)O)c1ccc(N(CC(C)C)C2CCCCC2)c(Nc2ccc(OC(F)(F)F)cc2)c1` (single isomer, unassigned) [Example 312, 3-(4-(cyclohexyl(isobutyl)amino)-3-((4-(trifluoromethoxy)phenyl)amino)phenyl)pentanoic acid], the IC50 was below 5 nM. With `CC(C)CN(CC(C)C)c1ccc(C(CC(=O)O)c2ccccc2)cc1NC(=O)Nc1ccc(OC(F)(F)F)cc1` (racemic) [Example 1009, (+/−)3-(4-(Diisobutylamino)-3-(3-(4-(trifluoromethoxy)phenyl)ureido)phenyl)-3-phenylpropanoic acid], the IC50 was above 50 nM. For the molecule `CCOc1ccc(NC(=O)Nc2cc([C@H](CC)CC(=O)O)ccc2N2CCC[C@H]2C(C)(C)O)cc1` (single isomer, unassigned) [Example 810], the IC50 is above 50 nM.

As for `CCC(CC(=O)O)c1ccc(N(CC)C2CCCOC2)c(NC(=O)Nc2ccc(C)cc2)c1` (single isomer, unassigned) [Example 73 D1, 3-(4-(Ethyl(tetrahydro-2H-pyran-3-yl)amino)-3-(3-(p-tolyl)ureido)phenyl)pentanoic acid], the IC50 was below 5 nM. As to `COCC(CC(=O)O)c1ccc(N(CC(C)C)C2CCCCC2)c(NC(=O)Nc2ccc(OC(F)(F)F)cc2)c1` (single isomer, unassigned) [Example 1244, 3-(4-(Cyclohexyl(isobutyl)amino)-3-(3-(4-(trifluoromethoxy)phenyl)ureido)phenyl)-4-methoxybutanoic acid], the IC50 was below 5 nM.

As for `CCC(CC(=O)O)c1ccc(N2CCOC[C@H]2C(C)C)c(Nc2cnc(OCC3CC3)nc2)c1` (single isomer, unassigned) [Example 905], the IC50 is above 50 nM. Regarding `CCC(CC(=O)O)c1ccc(N(CC2CC2)C2CCOCC2)c(Nc2ccc3c(c2)OC(F)(F)O3)c1` (single isomer, unassigned) [Example 704, 3-(4-((cyclopropylmethyl) (tetrahydro-2H-pyran-4-yl)amino)-3-((2,2-difluorobenzo[d][1,3]dioxol-5-yl)amino)phenyl) pentanoic acid], the half-maximal inhibitory concentration (IC50) is below 50 nM. In the case of `CC[C@H](CC(=O)O)c1ccc(N2CCOC[C@@H]2C(C)C)c(Nc2ccc(Cl)cc2)c1` (single isomer, unassigned) [Example 89], the IC50 was below 5 nM.
